Assays:
Purinergic P2Y = assay: Radioligand binding assay No. 268810; conditions: test substance 10 μM; rat
Lovo = assay: In vitro cytological inhibitory activity (XTT); format: cell-based; conditions: Homo sapiens, 72 hrs
Protocol: Lovo: Human colon carcinoma cell line;
(§1) 1. Preparation of agents and compounds:
(§2) • 1.1 Preparation of phosphoric acid buffering solution (PBS): 8 g NaCl, 0.2 g KCl, 1.44 g Na2HPO4 and 0.24 g KH2PO4 were weighed and added to 800 mL ultrapure water. The mixture was adjusted to pH=7.4, and ultrapure water was added to the metered volume of IL. Then the autoclaving was conducted for 20 mins. • 1.2 Preparation of XTT detection working solution: 100 mg (2,3-Bis-(2-methoxy-4-nitro-5-sulfophenyl)-2H-tetrazolium-5-carboxanilide); 2,3-bis(2-methoxy-4-nitro-5-sulfophenyl)-5-[(phenylamino)carbonyl]-2H-tetrazolium hydroxide (XTT) powder was weighed, and dissolved under protection from light 300 mL of phenol red-free and serum-free RPMI1640 culture, which had been warmed up to 50° C. The resulting mixture was filtered, packaged and used immediately or in one week. The complete process was conducted under protection from light. • 1.3 Preparation of the test compound • Preparation of the stock solution of the test compound: The test compound powder was dissolved in DMSO in a concentration of 10 mM. • Preparation of the gradiently diluted solution of the test compound: 10 mM of the stock solution of the test compound was successively and gradiently diluted with DMSO by 4 folds for 10 concentrations. […]

[1] = biological target: Serotonin (5-Hydroxytryptamine) 5-HT2B (Homo sapiens (Human), UniProt P41595); assay: Radioligand binding assay No. 271700; conditions: test substance 10 μM, read-out: Inhibitory rate (%), Serotonin (5-Hydroxytryptamine) 5-HT2B
Serotonin (5-Hydroxytryptamine) 5-HT2B, sequence (P41595 whole entry): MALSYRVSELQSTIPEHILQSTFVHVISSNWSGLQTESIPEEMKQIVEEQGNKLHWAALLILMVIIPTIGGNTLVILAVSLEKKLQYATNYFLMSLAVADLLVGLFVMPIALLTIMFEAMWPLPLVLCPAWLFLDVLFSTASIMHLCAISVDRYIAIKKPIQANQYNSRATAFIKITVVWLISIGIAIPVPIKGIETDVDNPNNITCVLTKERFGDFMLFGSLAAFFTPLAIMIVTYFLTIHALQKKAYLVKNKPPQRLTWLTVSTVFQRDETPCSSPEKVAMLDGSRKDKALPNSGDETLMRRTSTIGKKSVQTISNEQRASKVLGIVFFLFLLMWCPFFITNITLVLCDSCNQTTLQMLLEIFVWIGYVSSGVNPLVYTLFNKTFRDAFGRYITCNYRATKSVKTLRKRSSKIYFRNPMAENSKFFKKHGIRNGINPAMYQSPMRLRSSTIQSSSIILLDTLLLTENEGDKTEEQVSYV

MCF-7 = assay: In vitro cytological inhibitory activity (XTT); format: cell-based; conditions: Homo sapiens, MCF7, 72 hrs
Protocol: MCF-7: Human breast carcinoma cell line;
as §1, §2

Glutamate, NMDA, Agonism = assay: Radioligand binding assay No. 232810; conditions: test substance 10 μM; rat
BRAF V600E = BRAF V600E (Homo sapiens (Human), UniProt P15056, V600E); assay: Kinase selectivity, Lanthascreen analysis method; format: biochemical
BRAF V600E, sequence (P15056 whole entry V600E): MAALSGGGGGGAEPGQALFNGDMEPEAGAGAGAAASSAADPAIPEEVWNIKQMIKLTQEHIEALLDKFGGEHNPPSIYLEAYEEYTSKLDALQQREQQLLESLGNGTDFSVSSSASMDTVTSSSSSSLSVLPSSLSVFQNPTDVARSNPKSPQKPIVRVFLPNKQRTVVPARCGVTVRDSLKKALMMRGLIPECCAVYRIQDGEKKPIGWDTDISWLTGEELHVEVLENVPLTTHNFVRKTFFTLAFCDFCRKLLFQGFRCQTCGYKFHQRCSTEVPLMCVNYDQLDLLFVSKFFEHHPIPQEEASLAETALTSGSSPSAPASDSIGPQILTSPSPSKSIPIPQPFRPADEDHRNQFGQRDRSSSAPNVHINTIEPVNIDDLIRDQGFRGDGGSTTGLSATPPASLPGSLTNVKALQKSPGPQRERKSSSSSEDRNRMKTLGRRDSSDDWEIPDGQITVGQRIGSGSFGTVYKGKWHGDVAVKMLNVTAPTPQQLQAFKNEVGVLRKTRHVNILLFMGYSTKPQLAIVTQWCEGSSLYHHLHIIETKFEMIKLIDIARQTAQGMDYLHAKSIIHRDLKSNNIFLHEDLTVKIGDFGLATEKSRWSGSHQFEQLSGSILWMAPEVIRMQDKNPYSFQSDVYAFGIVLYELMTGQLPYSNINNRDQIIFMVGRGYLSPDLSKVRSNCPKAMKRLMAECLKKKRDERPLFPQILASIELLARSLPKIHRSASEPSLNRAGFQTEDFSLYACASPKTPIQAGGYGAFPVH

[2] = biological target: Serotonin (5-Hydroxytryptamine) 5-HT1A (Homo sapiens (Human), UniProt P08908); assay: Radioligand binding assay No. 271110; conditions: test substance 10 μM, read-out: Inhibitory rate (%), Serotonin (5-Hydroxytryptamine) 5-HT1A
Serotonin (5-Hydroxytryptamine) 5-HT1A, sequence (P08908 whole entry): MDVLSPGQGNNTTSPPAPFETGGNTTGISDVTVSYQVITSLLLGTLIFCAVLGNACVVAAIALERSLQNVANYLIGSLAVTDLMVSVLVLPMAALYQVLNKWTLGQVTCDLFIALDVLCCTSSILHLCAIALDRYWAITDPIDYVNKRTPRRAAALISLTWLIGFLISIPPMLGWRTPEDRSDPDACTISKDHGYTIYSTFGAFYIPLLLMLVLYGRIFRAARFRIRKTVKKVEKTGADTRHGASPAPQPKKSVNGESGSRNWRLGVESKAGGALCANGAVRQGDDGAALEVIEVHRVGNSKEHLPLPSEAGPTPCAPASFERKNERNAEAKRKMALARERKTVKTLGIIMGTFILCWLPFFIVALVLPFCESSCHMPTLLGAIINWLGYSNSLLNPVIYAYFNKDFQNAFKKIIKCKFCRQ

Adenosine A1 = Adenosine A1 (Homo sapiens (Human), UniProt P30542); assay: Radioligand binding assay No. 200510; conditions: test substance 10 μM, read-out: Inhibitory rate (%), Adenosine A1
Adenosine A1, sequence (P30542 whole entry): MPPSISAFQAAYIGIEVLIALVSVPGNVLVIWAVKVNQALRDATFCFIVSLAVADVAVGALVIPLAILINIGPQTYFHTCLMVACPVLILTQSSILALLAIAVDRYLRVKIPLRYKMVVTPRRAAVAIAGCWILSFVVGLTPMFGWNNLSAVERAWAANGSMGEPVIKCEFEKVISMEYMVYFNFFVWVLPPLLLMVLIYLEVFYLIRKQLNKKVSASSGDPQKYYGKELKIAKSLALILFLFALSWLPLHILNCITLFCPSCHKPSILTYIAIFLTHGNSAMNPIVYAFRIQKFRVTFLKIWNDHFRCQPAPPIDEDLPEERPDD

PC-3 = assay: In vitro cytological inhibitory activity (XTT); format: cell-based; conditions: Homo sapiens, 72 hrs
Protocol: PC-3: Human prostatic carcinoma cell line;
as §1, §2

| IC50 (PC-3) | Structure (SMILES) | Inhibitory rate (%), Purinergic P2Y (Purinergic P2Y) | IC50 (Lovo) | inhibition at 10 µM [1] | IC50 (MCF-7) | Inhibitory rate (%), Glutamate, NMDA, Agonism (Glutamate, NMDA, Agonism) | IC50 (BRAF V600E) | inhibition at 10 µM [2] | inhibition at 10 µM (Adenosine A1) |
| --- | --- | --- | --- | --- | --- | --- | --- | --- | --- |
| – | Nc1ccc(-c2ccc3ncc4c(=O)[nH]c(=O)n(-c5cccc(C(F)(F)F)c5)c4c3n2)cn1 [Compound 5, 9-(6-aminopyridin-3-yl)-1-(3-(trifluoromethyl)phenyl)pyrimido[5,4-c][1,5]naphthyridine-2,4(1H,3H)-dione] | 9% | 50.1 nM | 13% | 28.2 nM | 29% | > 10000 nM | 25% | 20% |
| 25.6 nM | O=c1[nH]c(=O)n(-c2cccc(C(F)(F)F)c2)c2c1cnc1ccc(-c3cnc4[nH]ccc4c3)nc12 [Compound 30, 9-(1H-pyrrolo[2,3-b]pyridin-5-yl)-1-(3-(trifluoromethyl)phenyl)pyrimido[5,4-c][1,5]naphthyridine-2,4(1H,3H)-dione] | – | – | – | – | – | – | – | – |
